Assay results taken from PubChem BioAssay (NCI).
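Exposure lasted 48 hours, with cells grown in 96-well plates and compounds tested at five concentrations. At the TGI there is no net growth.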 Where a SMILES comes first, the peptide text is derived from it. The star is where a group is joined. Boc = CC(C)(C)OC(=O)*; OBn = c1ccc(CO*)cc1; Bn = c1ccc(C*)cc1

Experiments:
Assay in all cases: NCI tumour cell line growth inhibition, 48 h
A549 NSCLC = system: A549 NSCLC
ACHN renal = system: ACHN renal
BT-549 breast = system: BT-549 breast
HCC-2998 colon = system: HCC-2998 colon
HCT-116 colon = system: HCT-116 colon
HS 578T breast = system: HS 578T breast
IGROV1 ovarian = system: IGROV1 ovarian
OVCAR-8 ovarian = system: OVCAR-8 ovarian
RPMI-8226 leukemia = system: RPMI-8226 leukemia
SK-MEL-5 melanoma = system: SK-MEL-5 melanoma
U251 CNS = system: U251 CNS

| Compound | TGI (A549 NSCLC) [µM] | TGI (ACHN renal) [µM] | TGI (BT-549 breast) [µM] | TGI (HCC-2998 colon) [µM] | TGI (HCT-116 colon) [µM] | TGI (HS 578T breast) [µM] | TGI (IGROV1 ovarian) [µM] | TGI (OVCAR-8 ovarian) [µM] | TGI (RPMI-8226 leukemia) [µM] | TGI (SK-MEL-5 melanoma) [µM] | TGI (U251 CNS) [µM] |
| --- | --- | --- | --- | --- | --- | --- | --- | --- | --- | --- | --- |
| CC(CCC(=O)O)(c1cc(Br)c(O)c(Br)c1)c1cc(Br)c(O)c(Br)c1 | > 100 | > 100 | > 100 | 86.3 | > 100 | > 100 | > 100 | > 100 | > 100 | 88.3 | > 100 |
| CC(C)CC(NC(=O)C(CCC(=O)OCc1ccccc1)NC(=O)OC(C)(C)C)C(=O)NC(COCc1ccccc1)C(=O)NC(Cc1ccccc1)C(=O)O (configuration not stated) (Boc-E(OBn)LS(Bn)F-OH; configuration not given here) | > 100 | > 100 | > 100 | > 100 | > 100 | > 100 | > 100 | > 100 | > 100 | > 100 | > 100 |
| Clc1ccc2nc3c(c(-c4ccccc4)nn3-c3ccccc3)c(-c3ccccc3)c2c1 | > 100 | > 100 | > 100 | > 100 | > 100 | > 100 | > 100 | > 100 | > 100 | > 100 | > 100 |
| CCOC(=O)C(NC(=O)Nc1ccccc1)(Nc1cccc(Cl)c1)C(F)(F)F (configuration not stated) | > 100 | > 100 | > 100 | > 100 | > 100 | > 78.4 | > 100 | > 100 | > 100 | > 100 | > 100 |
| Oc1cccc(-c2cc(=S)ss2)c1 | 44.5 | 30.1 | 35.8 | 32.4 | 33.3 | 36.9 | 29.8 | 49.9 | 5.91 | 19.7 | 28.5 |
| CN(CCN(C)Cc1ccc(Cl)c(Cl)c1)CCN1CCCC1 | > 100 | > 100 | > 100 | 32.2 | > 57.8 | > 45 | > 79.1 | > 100 | 32.4 | 29.1 | > 100 |
| Cc1cc([C@H](C#N)c2nc3ccccc3s2)nc(Cl)n1 | > 100 | 78.5 | 35.6 | 16.3 | 15.3 | 33.3 | 23.3 | 14.3 | 15.6 | 45.9 | 12.4 |
